The results in this text go back to US12435060B2, “Acylamino bridged heterocyclic compound, and composition and application thereof” (BEIJING SCITECH-MQ PHARMACEUTICALS LIMITED, priority 2019, dated 2025).

A value given as a limit tells only on which side of the number the result lay.

The experiment has as its system HT29 cells. Nature of the experiment: Inhibition of cell necrosis (CCK8 method), induced programmed necrosis of HT29 cells. In kind it is cell-based. The settings on record: Homo sapiens, HT-29; rescue from necrosis induced by TNF-α 20 ng/mL, AT-406 1 μM, Z-VAD-FMK 20 μM; 16-20 hours; CCK-8, OD 450 nm. The protocol: Assay Example 2. Assay Method for Compounds Inhibiting Cell Necrosis (CCK8 Method)
In this assay example 2, under the condition of inducing programmed cell necrosis, different concentrations of the test compounds were added to test the IC50 of the rescue effect of the test compounds on the programmed necrosis.
• Compounds: Dissolved in DMSO to make a 10 mM solution; • TNF-α: The initial concentration was 100 μg/mL; • Z-VAD-FMK: Dissolved in DMSO to make a 10 mM solution; • AT-406: Dissolved in DMSO to make a 10 mM solution. I. Experimental Steps • 1) Compound dilution: All test compounds were dissolved in DMSO to prepare a 10 mM stock solution, and the first concentration gradient dilution of the test compounds was completed in DMSO. The gradient dilution factor was 4 times and 9 concentration gradients were made; A 40-fold overall dilution of all compounds was completed in the cell culture medium, and the resulting compound was 10× compound, which will be added to the wells of the 96-well plate containing cells, so that the final cell culture medium was 1× the designed final concentration. The general drug design is 9 concentration gradients, of which the highest final concentration is 25000 nM, the lowest concentration after 4-fold dilution of 9 concentrations is 0.38 nM, and the final concentration of DMSO in all wells is 0.25%. The compound dilution process is shown in FIG. 3. • 2) HT 29 cells in good growth condition were selected, trypsinized, the cells was collected by centrifugation, resuspended in McCOY's 5A complete medium (containing 10% FBS) and counted, and the number of cells and survival rate were recorded. • 3) Cells were inoculated to the 60 wells in the middle of the 96-well culture plate at a density of 12000 cells/80 μL/well, surrounding wells were filled with sterile water, and incubated overnight. • 4) 10 μL of the 10× compound diluted with the medium was added to the assay wells, 10 μL of McCOY's 5A complete medium containing 2.5% DMSO was added to the inducer-free wells and the control wells, mixed and shaked, and incubated for 30 minutes. • 5) Then 10 μL of inducer mixture (TNF-α, AT-406, Z-VAD-FMK with the final concentration of 20 ng/mL, 1 μM, 20 μM) was added into the assay wells and control wells. 10 μL McCOY's 5A complete medium was added to wells without inducer. Cells were cultured in an incubator with 5% CO2, at 37° C. • 6) After culturing for 16-20 hours, 10 μL of CCK-8 reagent was added to each well, and incubated for about 2 hours; • 7) The OD value was read at 450 nm on the multi-function plate reader. • 8) Data processing: Inhibition rate of necrosis (%)=100*(X−B)/(A−B) • A: The OD values of the wells without inducer (containing cells, CCK-8, without compound and inducer); • […]: OD values of assay wells (containing cells, CCK-8, compound, inducer); • B: OD values of control wells (containing cells, CCK-8, inducer, without compound). Then the value were imported into Graphpad Prism5 software for curve fitting and the IC50 values were calculated.
(Tetrazolium dyes change colour on reduction, which living cells bring about.)
Regarding `O=C(Nc1cc(-c2ccccc2)ccn1)c1nnc(Cc2ccccc2)[nH]1` [Example 1, 5-benzyl-N-(4-phenylpyridin-2-yl)-4H-1,2,4-triazole-3-carboxamide], the IC50 fell in the range of 1000 to 10000 nM.

On to `COc1ccccc1-c1ccnc(NC(=O)c2nnc(Cc3ccccc3)[nH]2)c1` [Example 3, 5-benzyl-N-(4-(2-methoxyphenyl)pyridin-2-yl)-4H-1,2,4-triazole-3-carboxamide], for which the IC50 lay within 1000 to 10000 nM.

For `CCOc1ccccc1-c1ccnc(NC(=O)c2nnc(Cc3ccccc3)[nH]2)c1` [Example 4, 5-benzyl-N-(4-(2-ethoxyphenyl)pyridin-2-yl)-4H-1,2,4-triazole-3-carboxamide], the IC50 is 1000 to 10000 nM.

As for `CC(C)Oc1ccccc1-c1ccnc(NC(=O)c2nnc(Cc3ccccc3)[nH]2)c1` [Example 5, 5-benzyl-N-(4-(2-isopropyloxyphenyl)pyridin-2-yl)-4H-1,2,4-triazole-3-carboxamide], the IC50 is greater than 10000 nM.

With `O=C(Nc1cc(-c2ccccc2OC(F)(F)F)ccn1)c1nnc(Cc2ccccc2)[nH]1` [Example 6, 5-benzyl-N-(4-(2-(trifluoromethoxy)phenyl)pyridin-2-yl)-4H-1,2,4-triazole-3-carboxamide], the IC50 was in the range of 1000 to 10000 nM.

For `O=C(Nc1cc(-c2ccccc2Cl)ccn1)c1nnc(Cc2ccccc2)[nH]1` [Example 7, 5-benzyl-N-(4-(2-chlorophenyl)pyridin-2-yl)-4H-1,2,4-triazole-3-carboxamide], the half-inhibitory concentration (IC50) is 100 to 1000 nM.

The molecule `O=C(Nc1cc(-c2ccccc2C2CC2)ccn1)c1nnc(Cc2ccccc2)[nH]1` [Example 8, 5-benzyl-N-(4-(2-cyclopropylphenyl)pyridin-2-yl)-4H-1,2,4-triazole-3-carboxamide] came in with an IC50 of 1000 to 10000 nM.

`COc1ccc(-c2ccnc(NC(=O)c3nnc(Cc4ccccc4)[nH]3)c2)cc1` [Example 9, 5-benzyl-N-(4-(4-methoxyphenyl)pyridin-2-yl)-4H-1,2,4-triazole-3-carboxamide] yielded an IC50 greater than 10000 nM.

The molecule `COc1ccc(-c2ccnc(NC(=O)c3nnc(Cc4ccccc4)[nH]3)c2)c(C)c1` [Example 10, 5-benzyl-N-(4-(4-methoxy-2-methylphenyl)pyridin-2-yl)-4H-1,2,4-triazole-3-carboxamide] came in with a half-inhibitory concentration (IC50) of 1000 to 10000 nM.

On to `Cc1cc(Cl)ccc1-c1ccnc(NC(=O)c2nnc(Cc3ccccc3)[nH]2)c1` [Example 11, 5-benzyl-N-(4-(4-chloro-2-methylphenyl)pyridin-2-yl)-4H-1,2,4-triazole-3-carboxamide], for which the IC50 is 1000 to 10000 nM.

Take `Cc1cc(C#N)ccc1-c1ccnc(NC(=O)c2nnc(Cc3ccccc3)[nH]2)c1` [Example 12, 5-benzyl-N-(4-(4-cyano-2-methylphenyl)pyridin-2-yl)-4H-1,2,4-triazole-3-carboxamide]: the IC50 lay in the range of 100 to 1000 nM.

For `COc1ccc(Cl)c(-c2ccnc(NC(=O)c3nnc(Cc4ccccc4)[nH]3)c2)c1` [Example 13, 5-benzyl-N-(4-(2-chloro-5-methoxyphenyl)pyridin-2-yl)-4H-1,2,4-triazole-3-carboxamide], the IC50 was in the range of 1000 to 10000 nM.

On to `COc1ccc(F)cc1-c1ccnc(NC(=O)c2nnc(Cc3ccccc3)[nH]2)c1` [Example 14, 5-benzyl-N-(4-(5-fluoro-2-methoxyphenyl)pyridin-2-yl)-4H-1,2,4-triazole-3-carboxamide], for which the 50% inhibitory concentration (IC50) was in the range of 1000 to 10000 nM.

`COc1ccc(Cl)cc1-c1ccnc(NC(=O)c2nnc(Cc3ccccc3)[nH]2)c1` [Example 15, 5-benzyl-N-(4-(5-chloro-2-methoxyphenyl)pyridin-2-yl)-4H-1,2,4-triazole-3-carboxamide]: the 50% inhibitory concentration (IC50) lay in the range of 1000 to 10000 nM.

Molecule `COc1ccc(C)cc1-c1ccnc(NC(=O)c2nnc(Cc3ccccc3)[nH]2)c1` [Example 16, 5-benzyl-N-(4-(2-methoxy-5-methylphenyl)pyridin-2-yl)-4H-1,2,4-triazole-3-carboxamide] registered an IC50 of 1000 to 10000 nM.

Consider `COc1ccc(C(C)C)cc1-c1ccnc(NC(=O)c2nnc(Cc3ccccc3)[nH]2)c1` [Example 17, 5-benzyl-N-(4-(5-isopropyl-2-methoxyphenyl)pyridin-2-yl)-4H-1,2,4-triazole-3-carboxamide], for which the IC50 is greater than 10000 nM.

`COc1ccc(OC)c(-c2ccnc(NC(=O)c3nnc(Cc4ccccc4)[nH]3)c2)c1` [Example 18, 5-benzyl-N-(4-(2,5-dimethoxyphenyl)pyridin-2-yl)-4H-1,2,4-triazole-3-carboxamide]: the IC50 lay in the range of 1000 to 10000 nM.

Consider `COc1ccc(C(F)(F)F)cc1-c1ccnc(NC(=O)c2nnc(Cc3ccccc3)[nH]2)c1` [Example 19, 5-benzyl-N-(4-(2-methoxy-5-(trifluoromethyl)phenyl)pyridin-2-yl)-4H-1,2,4-triazole-3-carboxamide], for which the IC50 was 1000 to 10000 nM.

In the case of `Cc1ncccc1-c1ccnc(NC(=O)c2nnc(Cc3ccccc3)[nH]2)c1` [Example 20, 5-benzyl-N-(2-methyl-[3,4′-bipyridin]-2′-yl)-4H-1,2,4-triazole-3-carboxamide], the IC50 is 100 to 1000 nM.

The molecule `COc1ncccc1-c1ccnc(NC(=O)c2nnc(Cc3ccccc3)[nH]2)c1` [Example 21, 5-benzyl-N-(2-methoxy-[3,4′-bipyridin]-2′-yl)-4H-1,2,4-triazole-3-carboxamide] returned a half-inhibitory concentration (IC50) of 1000 to 10000 nM.

The molecule `CCOc1ncccc1-c1ccnc(NC(=O)c2nnc(Cc3ccccc3)[nH]2)c1` [Example 22, 5-benzyl-N-(2-ethoxy-[3,4′-bipyridin]-2′-yl)-4H-1,2,4-triazole-3-carboxamide] displayed an IC50 of 1000 to 10000 nM.

Regarding `CC(C)Oc1ncccc1-c1ccnc(NC(=O)c2nnc(Cc3ccccc3)[nH]2)c1` [Example 23, 5-benzyl-N-(2-isopropyloxy-[3,4′-bipyridin]-2′-yl)-4H-1,2,4-triazole-3-carboxamide], the IC50 was greater than 10000 nM.

`Cc1cnccc1-c1ccnc(NC(=O)c2nnc(Cc3ccccc3)[nH]2)c1` [Example 24, 5-benzyl-N-(3′-methyl-[4,4′-bipyridin]-2-yl)-4H-1,2,4-triazole-3-carboxamide] gave an IC50 of 100 to 1000 nM.

In the case of `COc1cnccc1-c1ccnc(NC(=O)c2nnc(Cc3ccccc3)[nH]2)c1` [Example 25, 5-benzyl-N-(3′-methoxy-[4,4′-bipyridin]-2-yl)-4H-1,2,4-triazole-3-carboxamide], the IC50 is 1000 to 10000 nM.

In turn, `Cn1nccc1-c1ccnc(NC(=O)c2nnc(Cc3ccccc3)[nH]2)c1` [Example 26, 5-benzyl-N-(4-(1-methyl-1H-pyrazol-5-yl)pyridin-2-yl)-4H-1,2,4-triazole-3-carboxamide] registered an IC50 of 100 to 1000 nM.

With `Cc1cc(-c2ccnc(NC(=O)c3nnc(Cc4ccccc4)[nH]3)c2)n(C)n1` [Example 27, 5-benzyl-N-(4-(1,3-dimethyl-1H-pyrazol-5-yl)pyridin-2-yl)-4H-1,2,4-triazole-3-carboxamide], the 50% inhibitory concentration (IC50) lay in the range of 1000 to 10000 nM.

The molecule `Cn1nc(C(F)(F)F)cc1-c1ccnc(NC(=O)c2nnc(Cc3ccccc3)[nH]2)c1` [Example 28, 5-benzyl-N-(4-(1-methyl-3-(trifluoromethyl)-1H-pyrazol-5-yl)pyridin-2-yl)-4H-1,2,4-triazole-3-carboxamide] registered an IC50 of 1000 to 10000 nM.

Turning to `Cc1ccccc1-c1cncc(NC(=O)c2nnc(Cc3ccccc3)[nH]2)c1` [Example 29, 5-benzyl-N-(5-(o-methylphenyl)pyridin-3-yl)-4H-1,2,4-triazole-3-carboxamide], the IC50 was greater than 10000 nM.

`O=C(Nc1cncc(-c2ccccc2Cl)c1)c1nnc(Cc2ccccc2)[nH]1` [Example 30, 5-benzyl-N-(5-(2-chlorophenyl)pyridin-3-yl)-4H-1,2,4-triazole-3-carboxamide]: the IC50 is greater than 10000 nM.

Consider `COc1ccc(Cl)c(-c2cncc(NC(=O)c3nnc(Cc4ccccc4)[nH]3)c2)c1` [Example 31, 5-benzyl-N-(5-(2-chloro-5-methoxyphenyl)pyridin-3-yl)-4H-1,2,4-triazole-3-carboxamide], for which the IC50 is greater than 10000 nM.

`CC(C)n1nc(C(F)(F)F)cc1-c1ccnc(NC(=O)c2nnc(Cc3ccccc3)[nH]2)c1` [Example 32, 5-benzyl-N-(4-(1-isopropyl-3-(trifluoromethyl)-1H-pyrazol-5-yl)pyridin-2-yl)-4H-1,2,4-triazole-3-carboxamide]: the IC50 is greater than 10000 nM.

A word on the IC50: it is the concentration that gives 50% inhibition. Low readings indicate higher potency, high ones lower potency.
